Where two headings read alike, the source gives them in different places. Square brackets hold non-standard residues; d marks the D form. Peptide text beside a SMILES is read from it. pGlu = O=C1CC[C@@H](C(=O)O)N1
Assays:
[1] = tested on: PANC-1, BxPC-3, Capan-1 cells and NHF; type: cell-based, human
Description: (§1) Pancreatic carcinoma cell lines, PANC-1 (ACC 783), BxPC-3 (ACC 760), and Capan-1 (ACC 244), were obtained from DSMZ (Braunschweig, Germany). Normal human fibroblasts (NHF; 106-05A) were purchased from Sigma-Aldrich (Poznan, Poland). PANC-1 and NHF cells were maintained in DMEM containing 10% fetal bovine serum (FBS) and 1% antibiotic solution. BxPC-3 and Capan-1 cells were maintained in […] with 15% FBS and 1% penicillin/streptomycin solution. Cells were regularly tested for mycoplasma contamination.
(§2) In all experiments, cells were seeded in 96-well plates at a density of 4 × 10^3 (PANC-1, BxPC-3), 5 × 10^3 (Capan-1), and 2 × 10^3 (NHF) cells per well. Plates were incubated for 24 h at 37 °C.
(§3) To evaluate the effect of each compound on cell viability, cells were treated with different concentrations (0–60 µM) of tested compounds for 24, 48, and 72 h. Next, 20 µL of MTS solution was added to each well. Plates were incubated for 2 h at 37 °C. The absorbance was measured at 490 nm. Untreated cells served as a negative control. The number of viable cells is directly proportional to the intensity of color produced. Cell viability is expressed as a percentage of control cells.

[2] = tested on: normal human fibroblasts (NHF); test: cell viability (MTS); type: cell-based
Description: as §1, §2, §3
(§4) Next, the medium was removed and a fresh medium containing tested compounds (at a concentration of 0–60 µM) was added. Plates were incubated for a further 24 h. Next, 20 µL of MTS solution was added to each well, and incubation was started (for 2 h at 37 °C). The absorbance was measured at 490 nm. Untreated cells served as a negative control.

[3] = tested on: PANC-1, BxPC-3 and NHF cells; test: cell migration (scratch assay), statements for several cell lines together; type: cell-based, human; settings: for effect on cell migration: scratch assay, 0-40 µM, 24 and 48 h
Experimental: In all experiments, cells were seeded in 24-well plates at a density of 7 × 10^3 (PANC-1, BxPC-3) and 4 × 10^3 (NHF) cells per well and incubated for 48 h. Next, clear lines were made using a sterile 10 μL pipette tip. The medium was carefully removed, and 500 µL of fresh medium was added to the cells. For evaluation of the effect of each compound on cell proliferation, cells were treated with different concentrations (0–40 µM) of tested compounds. Phase-contrast microscopic pictures were taken at 24, 48, and 72 h, and the area of the wound was measured using Image J software (National Institute of Health, V1.5, Bethesda, […], USA). […] Phase-contrast microscopic pictures were taken at 6 and 24 h. The cell migration rate was calculated by measuring the area of the wound at each timepoint. The measurements were performed using ImageJ software. The medium was not changed during the experiment. Due to its inability to form a confluent monolayer, cell migration was not evaluated for Capan-1 cells.

BxPC-3 cells [4] = test: cell viability (MTS); type: cell-based, human
Description: as §1, §2, §3, §4

Capan-1 cells = test: cell viability (MTS); type: cell-based, human
Description: as §1, §2, §3, §4

PANC-1 cells = test: cell viability (MTS); type: cell-based, human
Description: as §1, §2, §3, §4

DRD2 [5] = target: T1, DRD2 (Rattus norvegicus, UniProt P61169); test: [3H]spiperone competition binding (DRD2 displacement), membrane homogenates; settings: 0.25 nM [3H]spiperone
T1 construct: from tissue; host or cells: Wistar rat brain and spinal cord membranes
T1 sequence (P61169 whole entry): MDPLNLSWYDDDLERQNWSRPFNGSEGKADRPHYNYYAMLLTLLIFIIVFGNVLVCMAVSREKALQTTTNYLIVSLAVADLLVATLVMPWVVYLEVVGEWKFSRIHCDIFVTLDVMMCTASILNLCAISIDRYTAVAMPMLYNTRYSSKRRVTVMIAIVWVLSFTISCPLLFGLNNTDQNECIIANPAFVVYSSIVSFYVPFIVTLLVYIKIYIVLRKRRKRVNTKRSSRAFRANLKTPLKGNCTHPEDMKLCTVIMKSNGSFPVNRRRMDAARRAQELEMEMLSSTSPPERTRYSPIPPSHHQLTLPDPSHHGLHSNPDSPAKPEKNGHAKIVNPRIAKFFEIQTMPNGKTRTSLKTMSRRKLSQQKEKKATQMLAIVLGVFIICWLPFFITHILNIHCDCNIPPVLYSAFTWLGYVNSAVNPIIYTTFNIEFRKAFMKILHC
Experimental: (§5) Rats were decapitated, and their brains and spinal cords were quickly removed. […] Briefly, the brains and spinal cords were homogenized in freshly prepared ice-cold Tris-HCl buffer (50 mM, pH 7.4) and centrifuged at 18,000 rpm for 20 min (4 °C). The resulting supernatant was removed while the pellet was taken up in the original volume of Tris-HCl buffer. The homogenate was further incubated at 37 °C for 30 min and again centrifuged. The received pellet was consequently suspended in 50 mM Tris-HCl (pH 7.4) buffer and kept until analysis at −80 °C.
(§6) In DRD1 displacement, the Tris-HCl buffer (pH 7.4) contained 120 mM NaCl, 5 mM KCl, 1 mM MgCl2, 2 mM CaCl2, and 1 µM mianserin. In DRD2 displacement, the Tris-HCl buffer (pH 7.4) was a mixture of 5 mM KCl, 2 mM MgCl2, 2 mM CaCl2, and 1 µM ketanserin. The incubation of tissue membranes was performed in the presence of the unlabeled ligands in increasing concentrations (10^−10–10^−5 M) at 35 °C for 45 min with [^3H]SCH-23390 and at 25 °C for 120 min with [^3H]spiperone. […] The experiment was performed in duplicate and repeated at least three times.
(§7) In the competition binding assays, the IC50 value was calculated using ‘one site competition’ fitting. The inhibitory activity was presented as a percentage of the specific binding observed.

DRD2 [6] = target: T1, DRD2; test: ligand-stimulated [35S]GTPγS binding (G-protein activity), membrane homogenates; type: biochemical; settings: for maximal G-protein efficacy (Emax): basal activity = 100%; for EC50: logarithm of EC50, read-out: potency (log EC50) (converted)
BxPC-3 cells [7] = test: cell migration (scratch assay); type: cell-based, human; settings: BxPC-3, after 24 h
Experimental: In all experiments, cells were seeded in 24-well plates at a density of 7 × 10^3 (PANC-1, BxPC-3) and 4 × 10^3 (NHF) cells per well and incubated for 48 h. Next, clear lines were made using a sterile 10 μL pipette tip. The medium was carefully removed, and 500 µL of fresh medium was added to the cells.
For evaluation of the effect of each compound on cell proliferation, cells were treated with different concentrations (0–40 µM) of tested compounds. Phase-contrast microscopic pictures were taken at 24, 48, and 72 h, and the area of the wound was measured using Image J software (National Institute of Health, V1.5, Bethesda, MA, USA).
The cell migration rate was calculated by measuring the area of the wound at each timepoint. The measurements were performed using ImageJ software. The medium was not changed during the experiment. Due to its inability to form a confluent monolayer, cell migration was not evaluated for Capan-1 cells.

DRD1 [8] = target: T2, DRD1 (Rattus norvegicus, UniProt P18901); settings: read-out: IC50, DRD1; rat spinal cord homogenates; 2 nM [3H]SCH-23390
T2 sequence (P18901 whole entry): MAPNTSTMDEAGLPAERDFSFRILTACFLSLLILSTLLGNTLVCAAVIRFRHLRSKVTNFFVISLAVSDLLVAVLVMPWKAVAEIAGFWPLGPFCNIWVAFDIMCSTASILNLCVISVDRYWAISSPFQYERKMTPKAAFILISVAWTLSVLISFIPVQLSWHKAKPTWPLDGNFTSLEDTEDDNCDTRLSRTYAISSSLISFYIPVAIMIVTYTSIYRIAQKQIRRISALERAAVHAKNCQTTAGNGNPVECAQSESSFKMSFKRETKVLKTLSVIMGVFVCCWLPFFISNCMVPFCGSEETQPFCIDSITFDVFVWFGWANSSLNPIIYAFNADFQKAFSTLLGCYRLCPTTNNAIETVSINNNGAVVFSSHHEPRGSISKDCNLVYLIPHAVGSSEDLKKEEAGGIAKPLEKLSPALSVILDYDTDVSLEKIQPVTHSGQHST
Experimental: as §5, §6, §7

DRD1 [9] = target: T2, DRD1; test: biochemical
Experimental: as §5, §6, §7

GRP-Rs = tested on: GRP-Rs; set-up: method as in PMID 1850273; settings: compared with GRP; cited from earlier work
[10] = Homo sapiens, Fibroblast, NHF, 24 h
[11] = Homo sapiens, Fibroblast, NHF, 48 h
[12] = Homo sapiens, Fibroblast, NHF, 72 h
[13] = rat spinal cord membrane homogenates

Question: For Cc1nc2n(c(=O)c1CCN1CCC(c3noc4cc(F)ccc34)CC1)CCCC2 [Risperidone], which “decrease in cell viability” value [1] is on record?
Answer: up to 20%

Question: What about the “effect on cell viability” value [2] of the same compound?
Answer: no effect

Question: Which IC50 [2, 10] does the source give for O=c1[nH]c2ccccc2n1C1CCN(CCCC(c2ccc(F)cc2)c2ccc(F)cc2)CC1 [Pimozide, pimozide] here?
Answer: 38.7 ± 1.37 µM

Question: What about the IC50 [2, 11] of the same compound?
Answer: 28.7 ± 3.82 µM

Question: And the IC50 [2, 12]?
Answer: 23.6 ± 0.92 µM

Question: What about the “effect on cell migration” value [3] of the same compound?
Answer: decreased with the increasing concentration

Question: What about the IC50 (BxPC-3 cells [4]; Homo sapiens, BXPC-3, 24 h) of the same compound?
Answer: 21.7 ± 2.27 µM

Question: And the IC50 (BxPC-3 cells [4]; Homo sapiens, BXPC-3, 48 h)?
Answer: 16.1 ± 0.94 µM

Question: What about the IC50 (BxPC-3 cells [4]; Homo sapiens, BXPC-3, 72 h) of the same compound?
Answer: 17.8 ± 1.38 µM

Question: What about the IC50 (Capan-1 cells; Homo sapiens, CAPAN-1, 24 h) of the same compound?
Answer: 25.3 ± 3.11 µM

Question: What about the IC50 (Capan-1 cells; Homo sapiens, CAPAN-1, 48 h) of the same compound?
Answer: 20.7 ± 1.3 µM

Question: And the IC50 (Capan-1 cells; Homo sapiens, CAPAN-1, 72 h)?
Answer: 20 ± 1.79 µM

Question: And the IC50 (PANC-1 cells; Homo sapiens, PANC-1, 24 h)?
Answer: 15.1 ± 1.51 µM

Question: And the IC50 (PANC-1 cells; Homo sapiens, PANC-1, 48 h)?
Answer: 17 ± 1.08 µM

Question: What about the IC50 (PANC-1 cells; Homo sapiens, PANC-1, 72 h) of the same compound?
Answer: 20.3 ± 2.02 µM

Question: With CSCC[C@H](NC(=O)[C@H](Cc1ccccc1)NC(=O)[C@H](Cc1c[nH]cn1)NC(=O)CNC(=O)[C@@H](NC(=O)[C@H](C)NC(=O)[C@H](Cc1c[nH]c2ccccc12)NC(=O)[C@H](CCC(N)=O)NC(=O)[C@@H]1CCCN1C(=O)[C@@H](NC(=O)[C@@H]1CCC(=O)N1)C(C)C)C(C)C)C(N)=O [Ranatensin] ([pGlu]VPQWAVGHFM-NH2) as the compound, how does the IC50 (DRD2 [5]; rat brain membranes) read?
Answer: 0.0127 µM

Question: What about the IC50 (DRD2 [5]; rat spinal cord homogenates) of the same compound?
Answer: 0.0488 ± 0.00115 µM

Question: What about the “functional character at DRD2” value (DRD2 [6]; conclusion from binding and [35S]GTPγS assays) of the same compound?
Answer: DRD2 agonist

Question: And the “maximal G-protein efficacy (Emax)” value (DRD2 [6]; rat brain membrane homogenates)?
Answer: 124.1%

Question: What about the EC50 (DRD2 [6]; rat brain membrane homogenates) of the same compound?
Answer: 0.0184 µM

Question: What about the “Emax in presence of selective DRD2 antagonist risperidone” value (DRD2 [6]; rat brain, basal = 100%) of the same compound?
Answer: 101.5%

Question: What about the “maximal G-protein efficacy (Emax)” value (DRD2 [6]; [13]) of the same compound?
Answer: 119.8%

Question: And the EC50 (DRD2 [6]; [13])?
Answer: 0.78 µM

Question: What about the “Emax in presence of selective DRD1 antagonist SCH-39166” value (DRD2 [6]; rat spinal cord membranes, basal = 100%) of the same compound?
Answer: 117.4%

Question: What about the “Emax in presence of selective DRD2 antagonist risperidone” value (DRD2 [6]; rat spinal cord, basal = 100%) of the same compound?
Answer: 100.0%

Question: What about the “concentration with total wound closure” value (BxPC-3 cells [7]) of the same compound?
Answer: ≥ 20 µM

Question: What about the “effect on cell viability” value ([1]; cancer cells, 24 h) of the same compound?
Answer: lower viability compared to the untreated cells

Question: And the IC50 ([2]; NHF, 48 h)?
Answer: > 60 µM

Question: And the IC50 ([2]; NHF, 72 h)?
Answer: > 60 µM

Question: What about the “effect on cell viability” value ([2]; NHF, longer exposure (48 and 72 h)) of the same compound?
Answer: reduction in fibroblast viability compared to untreated cells

Question: What about the “migration rate of DRD2-blocked cells” value ([3]; PANC-1 and BxPC-3, risperidone pretreated, 24 h) of the same compound?
Answer: slower in comparison to cells treated with RAN alone

Question: What about the “effect on cell migration” value [3] of the same compound?
Answer: migrated at a similar rate to untreated cells

Question: And the IC50 (DRD1 [8])?
Answer: > 10 µM

Question: And the IC50 (DRD1 [9])?
Answer: > 10 µM

Question: And the IC50 (BxPC-3 cells [4]; BxPC-3, 48 h)?
Answer: > 60 µM

Question: What about the IC50 (BxPC-3 cells [4]; BxPC-3, 72 h) of the same compound?
Answer: > 60 µM

Question: And the IC50 (Capan-1 cells; Capan-1, 48 h)?
Answer: > 60 µM

Question: What about the IC50 (Capan-1 cells; Capan-1, 72 h) of the same compound?
Answer: > 60 µM

Question: And the “decrease in viability compared to the control” value (Capan-1 cells; Capan-1, RAN only, 24 h)?
Answer: around 20%

Question: What about the IC50 (PANC-1 cells; PANC-1, 48 h) of the same compound?
Answer: > 60 µM

Question: What about the IC50 (PANC-1 cells; PANC-1, 72 h) of the same compound?
Answer: > 60 µM

Question: And the “effect on cell viability” value (PANC-1 cells; PANC-1, prolonged incubation (48 and 72 h))?
Answer: significant increase in PANC-1 cell viability

Question: And the “affinity for GRP-Rs” value (GRP-Rs)?
Answer: equal affinity for GRP-Rs to GRP itself

Question: What does the source list for NCCc1ccc(O)c(O)c1 [Dopamine]?
Answer: effect on cell viability ([1]; all tested cells): increase in cell viability; IC50 [2, 10]: > 60 µM; IC50 [2, 11]: > 60 µM; IC50 [2, 12]: > 60 µM; effect on cell migration [3]: did not significantly increase; IC50 (BxPC-3 cells [4]; Homo sapiens, BXPC-3, 24 h): > 60 µM; IC50 (BxPC-3 cells [4]; Homo sapiens, BXPC-3, 48 h): > 60 µM; IC50 (BxPC-3 cells [4]; Homo sapiens, BXPC-3, 72 h): > 60 µM; IC50 (Capan-1 cells; Homo sapiens, CAPAN-1, 24 h): > 60 µM; IC50 (Capan-1 cells; Homo sapiens, CAPAN-1, 48 h): > 60 µM; IC50 (Capan-1 cells; Homo sapiens, CAPAN-1, 72 h): > 60 µM; IC50 (PANC-1 cells; Homo sapiens, PANC-1, 24 h): > 60 µM; IC50 (PANC-1 cells; Homo sapiens, PANC-1, 48 h): > 60 µM; IC50 (PANC-1 cells; Homo sapiens, PANC-1, 72 h): > 60 µM

Question: With Nc1ccn([C@@H]2O[C@H](CO)[C@@H](O)C2(F)F)c(=O)n1 [Gemcitabine, gemcitabine] as the compound, how does the IC50 [2, 10] read?
Answer: > 60 µM

Question: And the IC50 [2, 12]?
Answer: 1.28 ± 0.1 µM

Question: And the “effect on cell migration” value [3]?
Answer: slower migration with increasing concentration

Question: And the IC50 (BxPC-3 cells [4]; Homo sapiens, BXPC-3, 24 h)?
Answer: > 60 µM

Question: And the IC50 (BxPC-3 cells [4]; Homo sapiens, BXPC-3, 48 h)?
Answer: 0.643 ± 0.05 µM

Question: And the IC50 (BxPC-3 cells [4]; Homo sapiens, BXPC-3, 72 h)?
Answer: 0.296 ± 0.15 µM

Question: And the IC50 (Capan-1 cells; Homo sapiens, CAPAN-1, 24 h)?
Answer: > 60 µM

Question: What about the IC50 (Capan-1 cells; Homo sapiens, CAPAN-1, 72 h) of the same compound?
Answer: 0.657 ± 0.13 µM

Question: What about the IC50 (PANC-1 cells; Homo sapiens, PANC-1, 24 h) of the same compound?
Answer: > 60 µM

Question: What about the IC50 (PANC-1 cells; Homo sapiens, PANC-1, 72 h) of the same compound?
Answer: 0.28 ± 0.031 µM
